Experimental data as given in US12084458B2, “Substituted pyridines, pyridazines, and pyrimidines as TYK2 inhibitors” (Sudo Biosciences Limited, priority 2021, dated 2024).

Legend:
[1] = system: HEK-Blue IL-23 cells (IL-23-stimulated STAT3 SEAP reporter; TYK2 JH2); assay: HEK-Blue IL-23 SEAP reporter assay for profiling TYK2 pseudokinase (JH2) inhibition; format: cell-based; conditions: 10 ng/mL human recombinant IL-23, SEAP reporter, read-out: IL23 (TYK2 inhibitory activity, IC50)
How it was run: (§1)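 Cells were pretreated 60 min with serially diluted compounds, then stimulated with 10 ng/mL human IL-23 for 22-24 hours (STAT3 line) or 1 ng/mL human IFNα for 16-18 h (STAT1 line). SEAP induction read with QUANTI-Blue.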

[2] = system: HEK-Blue IFNα/β cells (IFNα-stimulated STAT1 SEAP reporter; TYK2 JH2); assay: HEK-Blue IFNα/β SEAP reporter assay for profiling TYK2 pseudokinase (JH2) inhibition; format: cell-based; conditions: Homo sapiens, HEK-Blue, 1 ng/mL human recombinant IFNα, read-out: IFNα (TYK2 inhibitory activity, IC50)
How it was run: as §1

TYK2 kinase domain (JH1) = biological target: T1, TYK2 kinase domain (JH1) (Homo sapiens, UniProt P29597); assay: HTRF-based selectivity assay, TYK2 catalytic domain; format: biochemical; conditions: recombinant catalytic domain, ATP 20 μM
T1 construct: recombinant purified His or GST-tagged catalytic domain for each enzyme; made in house
T1 sequence (P29597 897-1176 limits assumed): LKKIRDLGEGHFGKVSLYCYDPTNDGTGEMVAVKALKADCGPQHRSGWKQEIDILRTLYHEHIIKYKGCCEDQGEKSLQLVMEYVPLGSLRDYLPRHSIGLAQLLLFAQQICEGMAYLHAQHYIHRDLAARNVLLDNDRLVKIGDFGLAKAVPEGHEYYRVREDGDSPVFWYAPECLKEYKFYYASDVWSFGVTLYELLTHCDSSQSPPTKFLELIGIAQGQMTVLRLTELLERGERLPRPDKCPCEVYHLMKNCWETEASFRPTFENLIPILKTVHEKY
Protocol: (§2) Example B-2: HTRF-Based Selectivity Assay
(§3) The ability of compounds to inhibit the activity of JAK1, JAK2, JAK3 and TYK2 is measured using a recombinant purified His or GST-tagged catalytic domain for each enzyme (JAK1, JAK2 and TYK2 are generated in-house; JAK3 was purchased from Carna biosciences, Cat #08-046) in an HTRF format biochemical assay. The reactions employs a commercial peptide substrate from Cisbio (Cat #62TK0PEC). The basic assay protocol is as follows: first, 2.5 μL of diluted compounds (4×) in DMSO are dispensed into a 384-well Optiplate. Next, 2.5 μL of enzyme (final concentrations for enzymes are: TYK2—700 ng/mL, JAK1—80.6 ng/mL, JAK2—2.1 ng/mL and JAK3—171.8 ng/mL) is added and incubated at RT for 5-20 min. Finally, 5 μl of mixture of 2× ATP [Final concentration 20 μM for TYK2, 21.43 μM for JAK1, 14.7 μM for JAK2 and 2.12 μM for JAK3]+2× Substrate [Final concentration 217 nM for TYK2, 454.7 nM for JAK1, 200 nM for JAK2 and 257.4 nM for JAK3] is added to 384 well Optiplate. Composition of Kinase assay buffer used in the assay is as follows: HEPES 50 mM, EGTA 1 mM, MgCl2 10 mM, DTT 2 mM, Tween-20 0.01% and water. Then the plates are shaken and then incubated at 26.5° C. for 60 min.

JAK1 kinase domain (JH1) = biological target: T2, JAK1 kinase domain (JH1) (Homo sapiens, UniProt P23458); assay: HTRF-based selectivity assay, JAK1 catalytic domain; format: biochemical; conditions: recombinant catalytic domain, ATP 21.43 μM
T2 construct: recombinant purified His or GST-tagged catalytic domain for each enzyme; made in house
Protocol: as §2, §3

JAK2 kinase domain (JH1) = biological target: T3, JAK2 kinase domain (JH1) (Homo sapiens, UniProt O60674); assay: HTRF-based selectivity assay, JAK2 catalytic domain; format: biochemical; conditions: recombinant catalytic domain, ATP 14.7 μM
T3 construct: recombinant purified His or GST-tagged catalytic domain for each enzyme; made in house
Protocol: as §2, §3

JAK3 kinase domain (JH1) = biological target: T4, JAK3 kinase domain (JH1) (Homo sapiens, UniProt P52333); assay: HTRF-based selectivity assay, JAK3 catalytic domain; format: biochemical; conditions: recombinant catalytic domain, ATP 2.12 μM
T4 construct: recombinant purified His or GST-tagged catalytic domain for each enzyme; purchased Carna biosciences 08-046
Protocol: as §2, §3

[3] = system: HEK-Blue IL-2 reporter cells (IL-2-stimulated STAT5 SEAP reporter); assay: HEK-Blue IL-2 SEAP reporter assay for determining selectivity; format: cell-based; conditions: 4 ng/mL human recombinant IL-2
How it was run: (§4)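 Cells were plated for 20-22 h, then pretreated with serially diluted compound for 60 min. They were stimulated for 24 h with 4 ng/mL human recombinant IL-2 or 50 ng/mL human recombinant IFNγ, and SEAP induction was read with QUANTI-Blue.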

[4] = system: HEK-Blue IFNγ reporter cells (IFNγ-stimulated STAT1 SEAP reporter); assay: HEK-Blue IFNγ SEAP reporter assay for determining selectivity; format: cell-based; conditions: Homo sapiens, HEK-Blue, 50 ng/mL human recombinant IFNγ, read-out: IFN-γ (SEAP selectivity, IC50)
How it was run: as §4

T4 sequence (P52333 822-1111 limits assumed): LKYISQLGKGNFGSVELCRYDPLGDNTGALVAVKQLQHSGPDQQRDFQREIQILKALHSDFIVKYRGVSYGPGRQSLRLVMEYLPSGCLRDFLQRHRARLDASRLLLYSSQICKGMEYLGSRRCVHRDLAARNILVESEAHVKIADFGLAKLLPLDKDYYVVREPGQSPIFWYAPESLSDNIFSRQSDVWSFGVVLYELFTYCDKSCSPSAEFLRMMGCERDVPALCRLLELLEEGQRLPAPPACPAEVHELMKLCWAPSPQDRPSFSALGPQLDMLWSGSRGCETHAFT
T3 sequence (O60674 849-1124 limits assumed): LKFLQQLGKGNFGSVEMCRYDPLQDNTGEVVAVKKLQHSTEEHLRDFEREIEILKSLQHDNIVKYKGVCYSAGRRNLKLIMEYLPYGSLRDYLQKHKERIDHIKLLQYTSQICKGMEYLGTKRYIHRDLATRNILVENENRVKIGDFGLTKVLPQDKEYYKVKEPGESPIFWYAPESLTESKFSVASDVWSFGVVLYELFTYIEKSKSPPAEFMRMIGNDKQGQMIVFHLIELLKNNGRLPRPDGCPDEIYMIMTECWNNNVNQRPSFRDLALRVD
T2 sequence (P23458 875-1153 limits assumed): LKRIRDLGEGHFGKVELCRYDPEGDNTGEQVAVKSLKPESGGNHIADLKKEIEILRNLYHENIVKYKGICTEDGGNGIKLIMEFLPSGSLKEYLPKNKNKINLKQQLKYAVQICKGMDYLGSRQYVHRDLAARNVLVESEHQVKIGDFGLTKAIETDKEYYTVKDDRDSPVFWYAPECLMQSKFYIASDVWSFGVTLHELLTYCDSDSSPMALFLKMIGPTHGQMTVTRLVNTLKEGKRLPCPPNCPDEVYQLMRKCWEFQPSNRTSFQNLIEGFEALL

Compound: [2H]C([2H])([2H])NC(=O)c1nnc(NC(=O)[C@H]2C[C@H]2F)cc1Nc1cccc2c1N(C)Cc1nc(C)nn1-2 (single isomer, unassigned) [Compound 8]
- IC50 [1]: < 30 nM
- IC50 [2]: 30 to 300 nM
- IC50 (TYK2 kinase domain (JH1)): > 1000 nM
- IC50 (JAK1 kinase domain (JH1)): > 1000 nM
- IC50 (JAK2 kinase domain (JH1)): > 1000 nM
- IC50 (JAK3 kinase domain (JH1)): > 1000 nM
- IC50 [3]: > 1000 nM

Compound: [2H]C([2H])([2H])NC(=O)c1cnc(NC(=O)C2CC2)cc1Nc1cccc2c1N(C)Cc1nc(C)nn1-2 [Compound 4, 6-(cyclopropanecarboxamido)-4-((2,5-dimethyl-4,5-dihydro-[1,2,4]triazolo[1,5-a]quinoxalin-6-yl)amino)-N-(methyl-d3)nicotinamide]
- IC50 [1]: < 30 nM
- IC50 [2]: < 30 nM
- IC50 (TYK2 kinase domain (JH1)): > 1000 nM
- IC50 (JAK1 kinase domain (JH1)): > 1000 nM
- IC50 (JAK3 kinase domain (JH1)): > 1000 nM
- IC50 [3]: > 1000 nM
- IC50 [4]: 300 to 1000 nM

Compound: [2H]C([2H])([2H])NC(=O)c1nnc(NC(=O)C2CC2)cc1Nc1cccc2c1N(C)Cc1nc(C)nn1-2 [Compound 5, 6-(cyclopropanecarboxamido)-4-((2,5-dimethyl-4,5-dihydro-[1,2,4]triazolo[1,5-a]quinoxalin-6-yl)amino)-N-(methyl-d3)pyridazine-3-carboxamide]
- IC50 [1]: < 30 nM
- IC50 [2]: < 30 nM
- IC50 (TYK2 kinase domain (JH1)): > 1000 nM
- IC50 (JAK1 kinase domain (JH1)): > 1000 nM
- IC50 (JAK2 kinase domain (JH1)): > 1000 nM
- IC50 (JAK3 kinase domain (JH1)): > 1000 nM
- IC50 [3]: > 1000 nM
- IC50 [4]: 30 to 300 nM

Compound: [2H]C([2H])([2H])NC(=O)c1nnc(Nc2ccc(C(F)(F)F)cn2)cc1Nc1cccc2c1N(C)Cc1nc(C)nn1-2 [Compound 10, 4-((2,5-dimethyl-4,5-dihydro-[1,2,4]triazolo[1,5-a]quinoxalin-6-yl)amino)-N-(methyl-d3)-6-((5-(trifluoromethyl)pyridin-2-yl)amino)pyridazine-3-carboxamide]
- IC50 [1]: < 30 nM
- IC50 [2]: 30 to 300 nM
- IC50 (TYK2 kinase domain (JH1)): > 1000 nM
- IC50 (JAK1 kinase domain (JH1)): > 1000 nM
- IC50 (JAK2 kinase domain (JH1)): > 1000 nM
- IC50 (JAK3 kinase domain (JH1)): > 1000 nM
- IC50 [3]: > 1000 nM

Compound: [2H]C([2H])([2H])NC(=O)c1nnc(Nc2ccc(C)cn2)cc1Nc1cccc2c1N(C)Cc1nc(C)nn1-2 [Compound 11, 4-((2,5-dimethyl-4,5-dihydro-[1,2,4]triazolo[1,5-a]quinoxalin-6-yl)amino)-N-(methyl-d3)-6-((5-methylpyridin-2-yl)amino)pyridazine-3-carboxamide]
- IC50 [1]: < 30 nM
- IC50 [2]: < 30 nM
- IC50 (TYK2 kinase domain (JH1)): > 1000 nM
- IC50 (JAK1 kinase domain (JH1)): > 1000 nM
- IC50 (JAK2 kinase domain (JH1)): > 1000 nM
- IC50 (JAK3 kinase domain (JH1)): > 1000 nM

Compound: [2H]C([2H])([2H])NC(=O)c1nnc(Nc2ccc(F)cn2)cc1Nc1cccc2c1N(C)Cc1nc(C)nn1-2 [Compound 12, 4-((2,5-dimethyl-4,5-dihydro-[1,2,4]triazolo[1,5-a]quinoxalin-6-yl)amino)-6-((5-fluoropyridin-2-yl)amino)-N-(methyl-d3)pyridazine-3-carboxamide]
- IC50 [1]: < 30 nM
- IC50 [2]: < 30 nM
- IC50 (TYK2 kinase domain (JH1)): > 1000 nM
- IC50 (JAK1 kinase domain (JH1)): > 1000 nM
- IC50 (JAK2 kinase domain (JH1)): > 1000 nM
- IC50 (JAK3 kinase domain (JH1)): > 1000 nM
- IC50 [3]: 30 to 300 nM

Compound: [2H]C([2H])([2H])NC(=O)c1nnc(Nc2ccc(C#N)cn2)cc1Nc1cccc2c1N(C)Cc1nc(C)nn1-2 [Compound 13, 6-((5-cyanopyridin-2-yl)amino)-4-((2,5-dimethyl-4,5-dihydro-[1,2,4]triazolo[1,5-a]quinoxalin-6-yl)amino)-N-(methyl-d3)pyridazine-3-carboxamide]
- IC50 [1]: < 30 nM
- IC50 [2]: < 30 nM
- IC50 (TYK2 kinase domain (JH1)): > 1000 nM
- IC50 (JAK1 kinase domain (JH1)): > 1000 nM
- IC50 (JAK2 kinase domain (JH1)): > 1000 nM
- IC50 (JAK3 kinase domain (JH1)): > 1000 nM
- IC50 [3]: > 1000 nM
